# Several values for one entry are separate records, joined by “and”; a condition that tells them apart may be missing. Identical values can stand only once. Like-named read-outs stand apart in the source and are kept apart here.
# Tests used:
# PfCRT [1] = assay: Potential co-substrates tested for influx of VF-6 via PfCRT into the oocyte; assay type: cell-based, Plasmodium falciparum; parameters: key: X: Compounds that have been tested as potential co-substrates but are not required for influx of VF-6 via PfCRT into the oocyte
# PfCRT [2] = assay: Test of solutes as potential co-substrates for influx of VF-6 via PfCRT into the oocyte; assay type: cell-based, Plasmodium falciparum; parameters: key: X: Compounds that have been tested as potential co-substrates but are not required for influx of VF-6 via PfCRT into the oocyte; details: X = tested
# non-expressing oocytes [3] = assay: cells; assay type: cell-based, Xenopus laevis; details: Xenopus laevis, Oocyte
# How it was run: (§1)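 Using pH 5.5 ND96 at 27.5 °C, uptake is followed for 1.5 h, stopped with ice-cold buffer, and quantified as accumulated radioactivity per oocyte after SDS lysis.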
# PfNT1 = target: T1, PfNT1 (Plasmodium falciparum, UniProt Q8IDM6); assay: cell-based; assay type: cell-based; details: […]
# T1 construct: expressed in transfected cells; host or cells: Xenopus laevis oocytes (stage V-VI), cRNA-injected
# How it was run: (§2)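 Oocytes (ten per treatment, ≥4 independent frogs/days) were preloaded by injecting VF-6 in 25 nL ND96 at pH 5.0, 5.5, 6.0 or 7.0, or Na^+-free choline buffer, then uptake run 1.5 h, 27.5 °C, ND96 pH 5.5 by default. Internal concentrations assumed ~400 nL oocyte volume.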
# PfCRT^Ecu1110 [4] = target: T2, PfCRT^Ecu1110 (Plasmodium falciparum, UniProt Q9N623, A220S/I356L/K76T/N326D); assay: cell-based; assay type: cell-based; details: […]
# How it was run: as §2
# PfCRT^3D7 [5] = target: T3, PfCRT^3D7 (Plasmodium falciparum, UniProt Q8IBZ9); assay: cell-based; assay type: cell-based
# How it was run: as §2
# PfCRT^Dd2 [6] = target: T4, PfCRT^Dd2 (Plasmodium falciparum, UniProt Q9N623, A220S/I356T/K76T/M74I/N326S/N75E/Q271E/R371I); assay: cell-based; assay type: cell-based; details: […]
# How it was run: as §2
# non-expressing oocytes [7] = assay type: cell-based, Xenopus laevis
# How it was run: as §2
# PfCRT^3D7 [8] = target: T3, PfCRT^3D7; assay: cell-based; assay type: cell-based; remark: listed apart in the source
# How it was run: as §1
# PfCRT^Ecu1110 [9] = target: T2, PfCRT^Ecu1110; assay: [3H]CQ uptake into Xenopus oocytes, cis-inhibition by unlabelled solute; assay type: cell-based
# How it was run: as §1
# PfCRT^Dd2 [10] = target: T4, PfCRT^Dd2; assay: as above; assay type: cell-based
# How it was run: as §1
# [11] = read-out: Uptake of [3H]CQ (% PfCRTDd2 control), cis-inhibition, non-expressing oocytes, SEM
# [12] = read-out: Uptake of [3H]CQ (% non-expressing oocyte control), cis-inhibition
# [13] = read-out: Uptake of [3H]CQ (% PfCRTDd2 control), trans-stimulation, PfNT1, SEM
# [14] = read-out: Uptake of [3H]CQ (% PfNT1 control), trans-stimulation
# [15] = read-out: PfCRT-mediated [3H]CQ transport, trans-stimulation (% PfCRT3D7 control)
# [16] = read-out: Uptake of [3H]CQ (% PfCRT3D7 control), trans-stimulation
# [17] = read-out: Uptake of [3H]CQ (% PfCRTDd2 control), trans-stimulation, PfCRT3D7, SEM
# [18] = read-out: Uptake of [3H]CQ (% PfCRT3D7 control), cis-inhibition
# [19] = read-out: Uptake of [3H]CQ (% PfCRTDd2 control), cis-inhibition, PfCRT3D7, SEM
# [20] = read-out: PfCRT-mediated [3H]CQ transport, cis-inhibition (% PfCRTEcu1110 control)
# [21] = read-out: Uptake of [3H]CQ (% PfCRTDd2 control), cis-inhibition, PfCRTEcu1110, SEM
# [22] = read-out: Uptake of [3H]CQ (% PfCRTEcu1110 control), cis-inhibition
# [23] = read-out: [3H]CQ transport (% PfCRTEcu1110 control), cis-inhibition, PfCRTEcu1110, SEM
# [24] = read-out: PfCRT-mediated [3H]CQ transport, cis-inhibition (% PfCRTDd2 control)
# [25] = read-out: Uptake of [3H]CQ (% PfCRTDd2 control), cis-inhibition, PfCRTDd2, SEM
# T1 sequence (Q8IDM6 whole entry): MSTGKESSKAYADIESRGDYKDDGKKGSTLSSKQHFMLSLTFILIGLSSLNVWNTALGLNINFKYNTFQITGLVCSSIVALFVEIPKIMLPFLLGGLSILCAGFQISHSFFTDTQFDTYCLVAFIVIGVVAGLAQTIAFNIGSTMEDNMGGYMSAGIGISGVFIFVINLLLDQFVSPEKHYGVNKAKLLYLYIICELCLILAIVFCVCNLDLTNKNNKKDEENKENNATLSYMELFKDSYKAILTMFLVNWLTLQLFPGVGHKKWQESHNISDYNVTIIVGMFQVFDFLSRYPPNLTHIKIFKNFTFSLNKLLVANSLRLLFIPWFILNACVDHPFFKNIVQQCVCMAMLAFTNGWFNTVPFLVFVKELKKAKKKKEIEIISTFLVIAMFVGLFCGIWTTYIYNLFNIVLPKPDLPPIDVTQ
# T3 sequence (Q8IBZ9 59-398): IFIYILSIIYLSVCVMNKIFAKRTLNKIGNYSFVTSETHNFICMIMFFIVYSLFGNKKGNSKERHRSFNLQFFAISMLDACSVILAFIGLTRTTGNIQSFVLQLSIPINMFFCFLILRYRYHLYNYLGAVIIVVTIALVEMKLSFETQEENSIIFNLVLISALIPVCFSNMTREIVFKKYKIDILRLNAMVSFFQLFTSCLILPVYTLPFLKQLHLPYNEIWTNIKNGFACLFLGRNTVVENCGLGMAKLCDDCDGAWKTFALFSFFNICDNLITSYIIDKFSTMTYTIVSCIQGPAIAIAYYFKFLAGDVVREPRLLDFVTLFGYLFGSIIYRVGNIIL
# T2 sequence (Q9N623 whole entry A220S/I356L/K76T/N326D): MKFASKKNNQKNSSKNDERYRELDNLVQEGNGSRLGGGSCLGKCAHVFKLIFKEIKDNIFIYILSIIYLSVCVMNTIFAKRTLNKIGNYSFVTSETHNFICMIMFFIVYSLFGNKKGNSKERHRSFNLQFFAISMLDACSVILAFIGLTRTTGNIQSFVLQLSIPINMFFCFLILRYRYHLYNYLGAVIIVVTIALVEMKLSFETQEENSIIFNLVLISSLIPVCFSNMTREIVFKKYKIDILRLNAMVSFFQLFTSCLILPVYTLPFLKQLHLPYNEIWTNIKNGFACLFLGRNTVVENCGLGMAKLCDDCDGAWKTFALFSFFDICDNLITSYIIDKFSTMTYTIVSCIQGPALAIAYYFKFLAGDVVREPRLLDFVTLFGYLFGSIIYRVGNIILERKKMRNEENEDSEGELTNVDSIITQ
# T4 sequence (Q9N623 whole entry A220S/I356T/K76T/M74I/N326S/N75E/Q271E/R371I): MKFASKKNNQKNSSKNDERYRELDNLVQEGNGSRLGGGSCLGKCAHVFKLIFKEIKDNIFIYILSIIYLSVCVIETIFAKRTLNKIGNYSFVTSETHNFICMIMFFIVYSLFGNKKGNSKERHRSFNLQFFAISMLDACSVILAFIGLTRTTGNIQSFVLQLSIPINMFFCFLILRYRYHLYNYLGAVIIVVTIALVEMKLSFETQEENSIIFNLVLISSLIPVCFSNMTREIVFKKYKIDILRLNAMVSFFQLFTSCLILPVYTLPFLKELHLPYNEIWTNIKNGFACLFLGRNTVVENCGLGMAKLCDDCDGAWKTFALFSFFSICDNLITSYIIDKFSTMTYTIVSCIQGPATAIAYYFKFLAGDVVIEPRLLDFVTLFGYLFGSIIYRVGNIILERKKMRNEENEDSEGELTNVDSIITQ
smiles,measurement,setting,value
CSCC[C@H](N)C(=O)O [L-methionine],Tested as potential co-substrate but not required for influx of VF-6 via PfCRT into the oocyte,PfCRT [1],X
same,Tested as potential co-substrate but not required for influx of VF-6 via PfCRT into the oocyte,PfCRT [2],X
same,inhibition at 500 µM,non-expressing oocytes [3]; [11],2.7 ± 0.03%
same,inhibition at 1000 µM,non-expressing oocytes [3]; [11],2.5 ± 0.01%
same,inhibition at 2000 µM,non-expressing oocytes [3]; [11],2.9 ± 0.04%
same,inhibition at 500 µM,non-expressing oocytes [3]; [12],99 ± 3.6%
same,inhibition at 1000 µM,non-expressing oocytes [3]; [12],99 ± 3.5%
same,inhibition at 2000 µM,non-expressing oocytes [3]; [12],101 ± 4.6%
same,activity at 5000 µM,PfNT1; [13],2.2 ± 0.06%
same,activity at 45000 µM,PfNT1; [13],2.7 ± 0.04%
same,activity at 5000 µM,PfNT1; [14],100 ± 2.5%
same,activity at 45000 µM,PfNT1; [14],99 ± 2.6%
same,activity at 5000 µM,"PfCRT^Ecu1110 [4]; pH 5.5, read-out: Uptake of [3H]CQ (% PfCRTEcu1110 control), trans-stimulation, PfCRTEcu1110 oocytes, [test solute]i = 5 mM, total [3H]CQ transport, normalised to the oocyte type control",98 ± 2.1%
same,activity at 45000 µM,"PfCRT^Ecu1110 [4]; pH 5.5, read-out: Uptake of [3H]CQ (% PfCRTEcu1110 control), trans-stimulation, PfCRTEcu1110 oocytes, [test solute]i = 45 mM (30 mM for some solutes due to solubility), total [3H]CQ transport, normalised to the oocyte type control",100 ± 3.2%
same,activity at 5000 µM,"PfCRT^Ecu1110 [4]; read-out: Uptake of [3H]CQ (% PfCRTDd2 control), trans-stimulation, PfCRTEcu1110, total [3H]CQ transport, [test solute]i = 5 mM (intracellular), mean ± SEM, SEM",35 ± 1.3%
same,activity at 45000 µM,"PfCRT^Ecu1110 [4]; read-out: Uptake of [3H]CQ (% PfCRTDd2 control), trans-stimulation, PfCRTEcu1110, total [3H]CQ transport, [test solute]i = 45 mM (intracellular; 30 mM for some solutes due to solubility), mean ± SEM, SEM",36 ± 2.2%
same,"[3H]CQ transport (% PfCRT3D7 control), trans-stimulation, PfCRT3D7",PfCRT^3D7 [5]; SEM,0.3 ± 0.03 % PfCRT3D7 control
same,activity at 5000 µM,PfCRT^3D7 [5]; [15],97 ± 2.1%
same,activity at 45000 µM,PfCRT^3D7 [5]; [15],97 ± 2.7%
same,activity at 5000 µM,PfCRT^3D7 [5]; [16],99 ± 3.6%
same,activity at 45000 µM,PfCRT^3D7 [5]; [16],99 ± 3.1%
same,activity at 5000 µM,PfCRT^3D7 [5]; [17],3.3 ± 0.03%
same,activity at 45000 µM,PfCRT^3D7 [5]; [17],3.3 ± 0.02%
same,activity at 5000 µM,"PfCRT^Dd2 [6]; pH 5.5, read-out: Uptake of [3H]CQ (% PfCRTDd2 control), trans-stimulation, PfCRTDd2, total [3H]CQ transport, [test solute]i = 5 mM (intracellular), mean ± SEM, SEM",100 ± 3.2%
same,activity at 5000 µM,"PfCRT^Dd2 [6]; pH 5.5, read-out: Uptake of [3H]CQ (% PfCRTDd2 control), trans-stimulation, PfCRTDd2 oocytes, [test solute]i = 5 mM, total [3H]CQ transport, normalised to the oocyte type control",100 ± 3.2%
same,activity at 45000 µM,"PfCRT^Dd2 [6]; pH 5.5, read-out: Uptake of [3H]CQ (% PfCRTDd2 control), trans-stimulation, PfCRTDd2 oocytes, [test solute]i = 45 mM (30 mM for some solutes due to solubility), total [3H]CQ transport, normalised to the oocyte type control",99 ± 1%
same,"Uptake of [3H]CQ (% non-expressing oocyte control), trans-stimulation",non-expressing oocytes [7],99 ± 3.8 % non-expressing oocyte control and 98 ± 4.2 % non-expressing oocyte control
same,"Uptake of [3H]CQ (% PfCRTDd2 control), trans-stimulation, non-expressing oocytes",non-expressing oocytes [7]; SEM,2.4 ± 0.02 % PfCRTDd2 control and 2.8 ± 0.03 % PfCRTDd2 control
same,inhibition at 500 µM,PfCRT^3D7 [8]; [18],100 ± 3.6%
same,inhibition at 1000 µM,PfCRT^3D7 [8]; [18],100 ± 3.3%
same,inhibition at 2000 µM,PfCRT^3D7 [8]; [18],102 ± 2.5%
same,inhibition at 500 µM,PfCRT^3D7 [8]; [19],2.4 ± 0.07%
same,inhibition at 1000 µM,PfCRT^3D7 [8]; [19],2.2 ± 0.06%
same,inhibition at 2000 µM,PfCRT^3D7 [8]; [19],3.4 ± 0.07%
same,inhibition at 500 µM,PfCRT^Ecu1110 [9]; [20],94 ± 4.4%
same,inhibition at 1000 µM,PfCRT^Ecu1110 [9]; [20],95 ± 3.1%
same,inhibition at 2000 µM,PfCRT^Ecu1110 [9]; [20],98 ± 1.5%
same,inhibition at 500 µM,PfCRT^Ecu1110 [9]; [21],31 ± 1.5%
same,inhibition at 1000 µM,PfCRT^Ecu1110 [9]; [21],32 ± 1.1%
same,inhibition at 2000 µM,PfCRT^Ecu1110 [9]; [21],33 ± 1.2%
same,inhibition at 500 µM,PfCRT^Ecu1110 [9]; [22],96 ± 2.5%
same,inhibition at 1000 µM,PfCRT^Ecu1110 [9]; [22],97 ± 5.3%
same,inhibition at 2000 µM,PfCRT^Ecu1110 [9]; [22],100 ± 2.5%
same,inhibition at 500 µM,PfCRT^Ecu1110 [9]; [23],28 ± 0.5%
same,inhibition at 1000 µM,PfCRT^Ecu1110 [9]; [23],29 ± 0.5%
same,inhibition at 2000 µM,PfCRT^Ecu1110 [9]; [23],30 ± 0.5%
same,inhibition at 500 µM,PfCRT^Dd2 [10]; [24],96 ± 3.6%
same,inhibition at 2000 µM,PfCRT^Dd2 [10]; [24],95 ± 5.1%
same,inhibition at 500 µM,PfCRT^Dd2 [10]; [25],98 ± 2.4%
same,inhibition at 1000 µM,PfCRT^Dd2 [10]; [25],100 ± 2.1%
same,inhibition at 2000 µM,PfCRT^Dd2 [10]; [25],97 ± 2.4%

# Reference: paper PMC7413254 (Nature Communications, 2020)
